For 1 molecule, ED50 results are on record in patent publication US20230382919A1, “OXA- IBOGAINE INSPIRED ANALOGUES FOR TREATMENT OF NEUROLOGICAL AND PSYCHIATRIC DISORDERS” (The Trustees of Columbia University in the City of New York, priority 2021, published 2023).

Molecules are shown by their SMILES.

The subject of the test is C57BL/6J mice. Kind of test: Tail-flick test. It is filed as in vivo. To be noted: Mus musculus, sc, 10-30 mg/kg dose range. How it is done:
C57BL/6J (8-12 weeks, 22-31 g) were purchased from the Jackson Laboratory (Bar Harbor, ME) and housed 5 mice per cage with food and water available ad libitum. Mice were maintained on a 12-hr light/dark cycle (lights on 7:00-19:00) and all testing was done in the light cycle. Temperature was kept constant at 22±2° C., and relative humidity was maintained at 50±5%. Mice were moved to the testing room 30 minutes before the experiment to allow for acclimation. The body weight of each mouse and base tail-flick value were recorded. Mice were administered a 1 mg/kg s.c. dose of compound solution (volume of injection 220-310 μL based on body weight). After injection mice were returned to the home cage and allowed to rest for 30 minutes. Thirty minutes post injection the tail-flick measurement was taken using thermal stimulation via IR on a Ugo Basile unit set to 52 PSU (ten seconds was used as a maximum latency to prevent tissue damage). Mice were then administered 3 mg/kg s.c. dose, allowed to rest for 30 minutes, followed by another tail-flick measurement. […] Tail-flick latencies for the different doses were expressed as percentage of maximum potential effect (% MPE) by subtracting the experimental value by the base tail flick value then dividing by the difference between the maximum possible latency (10 seconds) and the base tail-flick value and finally multiplying by 100. […]

Regarding `c1ccc2c3c([nH]c2c1)C1CCCN(CC3)C1` (stereo not shown) [Compound 61, 1,4,5,6,7,8-hexahydro-2H-3,7-methanoazonino[5,4-b]indole], the 50% effect level (ED50) was put at a dose of 16.5 mg/kg.
